Experimental data as given in US11013745B2, “Triazolopyrimidine, triazolopyridine compounds, and the composition thereof for treating PRC2-mediated diseases” (SHANGHAI INSTITUTE OF MATERIA MEDICA, CHINESE ACADEMY OF …, priority 2017, dated 2021).

Legend:
[1] = Liver microsomal stability (human); assay type: in vitro ADME
Summary of the method: (§1)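 Human, mouse and rat liver microsomes were incubated with NADPH and MgCl2 in 0.1 M Tris pH 7.4, with compound at a 0.2 μM working solution. Remaining compound was quantified by LC/MS over the incubation time. The slope of log remaining versus time gave Clint, which was scaled to predicted Cl, Clhep and % MF.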

PRC2 enzyme = PRC2 enzyme (Homo sapiens (Human), UniProt O75530); test: PRC2 enzyme activity, TR-FRET method; assay type: biochemical
Sequence of PRC2 enzyme (O75530 whole entry): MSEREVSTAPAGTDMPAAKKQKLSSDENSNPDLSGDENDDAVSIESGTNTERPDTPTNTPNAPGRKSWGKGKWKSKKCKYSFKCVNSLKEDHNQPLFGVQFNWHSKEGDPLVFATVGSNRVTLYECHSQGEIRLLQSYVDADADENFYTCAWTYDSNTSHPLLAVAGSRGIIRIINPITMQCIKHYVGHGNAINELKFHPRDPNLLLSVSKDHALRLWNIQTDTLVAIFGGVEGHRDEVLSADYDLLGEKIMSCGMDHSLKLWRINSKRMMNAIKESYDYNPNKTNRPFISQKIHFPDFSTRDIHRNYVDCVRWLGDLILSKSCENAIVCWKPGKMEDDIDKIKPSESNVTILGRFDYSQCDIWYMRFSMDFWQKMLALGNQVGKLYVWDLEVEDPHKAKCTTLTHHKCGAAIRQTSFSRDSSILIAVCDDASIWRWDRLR
Sequence of PRC2 enzyme (Q15910 whole entry partner): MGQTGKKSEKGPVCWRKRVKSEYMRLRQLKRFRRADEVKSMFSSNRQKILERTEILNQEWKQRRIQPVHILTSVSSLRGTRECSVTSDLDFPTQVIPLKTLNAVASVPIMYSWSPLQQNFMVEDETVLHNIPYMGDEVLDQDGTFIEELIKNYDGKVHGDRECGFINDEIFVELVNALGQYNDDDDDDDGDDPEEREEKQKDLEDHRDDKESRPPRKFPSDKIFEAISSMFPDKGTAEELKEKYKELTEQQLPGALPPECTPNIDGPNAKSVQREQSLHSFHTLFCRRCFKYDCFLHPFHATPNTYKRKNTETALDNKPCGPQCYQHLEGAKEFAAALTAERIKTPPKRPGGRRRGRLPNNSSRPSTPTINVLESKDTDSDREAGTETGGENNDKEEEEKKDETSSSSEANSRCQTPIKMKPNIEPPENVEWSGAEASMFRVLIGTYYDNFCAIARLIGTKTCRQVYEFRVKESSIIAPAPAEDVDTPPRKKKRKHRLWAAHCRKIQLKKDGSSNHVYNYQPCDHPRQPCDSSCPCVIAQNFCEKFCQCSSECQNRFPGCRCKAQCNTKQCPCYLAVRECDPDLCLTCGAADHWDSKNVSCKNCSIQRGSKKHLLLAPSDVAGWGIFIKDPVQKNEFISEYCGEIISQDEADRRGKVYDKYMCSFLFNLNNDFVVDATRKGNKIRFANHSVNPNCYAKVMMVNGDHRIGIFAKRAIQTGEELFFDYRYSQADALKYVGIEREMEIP
Sequence of PRC2 enzyme (Q15022 whole entry partner): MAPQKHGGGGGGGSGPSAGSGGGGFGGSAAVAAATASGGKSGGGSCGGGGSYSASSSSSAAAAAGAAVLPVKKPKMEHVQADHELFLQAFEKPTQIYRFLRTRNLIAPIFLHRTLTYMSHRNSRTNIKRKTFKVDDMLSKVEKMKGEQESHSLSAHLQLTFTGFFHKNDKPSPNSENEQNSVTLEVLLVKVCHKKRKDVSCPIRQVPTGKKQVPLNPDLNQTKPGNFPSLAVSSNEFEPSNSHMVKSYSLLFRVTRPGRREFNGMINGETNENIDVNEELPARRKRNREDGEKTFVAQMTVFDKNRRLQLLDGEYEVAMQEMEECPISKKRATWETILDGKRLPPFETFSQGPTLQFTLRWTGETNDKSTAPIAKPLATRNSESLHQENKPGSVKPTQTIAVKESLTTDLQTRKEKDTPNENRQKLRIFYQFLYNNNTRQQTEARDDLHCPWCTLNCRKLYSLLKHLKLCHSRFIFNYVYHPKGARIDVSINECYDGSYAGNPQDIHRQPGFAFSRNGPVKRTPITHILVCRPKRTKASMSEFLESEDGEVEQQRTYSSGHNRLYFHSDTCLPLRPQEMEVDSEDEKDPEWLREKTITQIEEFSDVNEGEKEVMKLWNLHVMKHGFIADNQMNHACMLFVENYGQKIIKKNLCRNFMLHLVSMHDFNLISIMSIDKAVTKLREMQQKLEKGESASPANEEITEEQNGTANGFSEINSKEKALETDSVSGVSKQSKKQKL
Summary of the method: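 Enzyme preincubated with compound 30 min at room temperature; reaction started with biotin-labeled histone H3 peptide and SAM, run 4 h at room temperature.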

[2] = Liver microsomal stability (rat); assay type: in vitro ADME
Summary of the method: as §1

CS(=O)(=O)N1CC=C(c2cnc(NCc3c(F)ccc4c3CCO4)n3cnnc23)CC1 [E-Y13]
Clearance rate in vivo Clint In Vivo Extpl ([1]; human liver microsomes): 1732 mL/min | Intrinsic clearance rate in vivo Clint In Vitro ([1]; human liver microsomes): 22.6 mL/min/gprot | Liver clearance rate Clint Hep In Vivo Extpl ([1]; human liver microsomes): 804 mL/min | half-life ([1]; human, liver microsomes, pH 7.4, human liver microsomes, read-out: Half life T-half): 1.55 h | bioavailability ([1]; human, liver microsomes, pH 7.4, human liver microsomes, read-out: Metabolic bioavailability MF %): 46.4% | IC50 (PRC2 enzyme): 19 nM | Clearance rate in vivo Clint In Vivo Extpl ([2]; rat liver microsomes): 15.9 mL/min | Intrinsic clearance rate in vivo Clint In Vitro ([2]; rat liver microsomes): 35.2 mL/min/gprot | Liver clearance rate Clint Hep In Vivo Extpl ([2]; rat liver microsomes): 8.85 mL/min | Metabolic bioavailability MF % ([2]; rat liver microsomes): 53.9% | half-life ([2]; rat, liver microsomes, pH 7.4, rat liver microsomes, read-out: Half life T-half): 0.92 h
